T/C data for 20 compounds are collected here from PubChem BioAssay AID298 (DTP/NCI, 2004).

This experiment has as its system MX-1 breast xenograft, intrarenal, nude mice, tumor weight. As to the kind of experiment: NCI In Vivo Anticancer Drug Screen. Data for tumor model Human Mammary Carcinoma MX-1 Xenograft (intrarenal inoculation) in NU/NU BALB/C (nude) mice. As to conditions: endpoint: mean tumor weight change, higher = larger tumour. In outline: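 Compounds were given to mice carrying transplanted tumors, and tumor size or survival was measured. Each value is the treated-group measurement (T) divided by the vehicle-treated control-group measurement (C).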
(In general: A xenograft is tissue or cells of one species grown in another, often human tumour cells in immunodeficient mice.)

The mark [1] stands for this setting: dose: 150.0 mg/kg/injection, schedule: Q04DX003 (sc), vehicle: saline.
Where [2] appears, read: dose: 50.0 mg/kg/injection, schedule: Q04DX003 (ip), vehicle: DMSO.
The mark [3] stands for this setting: dose: 150.0 mg/kg/injection, schedule: Q04DX003 (ip), vehicle: Klucel (hydroxypropylcellulose) (HPC).

Where “and” joins values, the source holds several entries; their conditions need not be identical. Equal entries are not always repeated. Records with an inconclusive call do not appear.

With `O=C/C(Cl)=C(/Cl)C(=O)O`, the T/C (dose: 10.0 mg/kg/injection, schedule: Q01DX010 (sc), vehicle: saline with Tween-80) is 87 % of control; the T/C (dose: 20.0 mg/kg/injection, schedule: Q01DX010 (sc), vehicle: saline with Tween-80) is 36 % of control; the T/C (dose: 40.0 mg/kg/injection, schedule: Q01DX010 (sc), vehicle: saline with Tween-80) was 41 % of control.

With `CCCCCc1cc(/C=C2/N=C(c3ccc[nH]3)C=C2OC)[nH]c1C`, the T/C is 93 % of control (dose: 16.0 mg/kg/injection, schedule: Q04DX003 (sc), vehicle: saline with Tween-80); 93 % of control (dose: 32.0 mg/kg/injection, schedule: Q04DX003 (sc), vehicle: saline with Tween-80); 75 % of control (dose: 64.0 mg/kg/injection, schedule: Q04DX003 (sc), vehicle: saline with Tween-80); 46 % of control (dose: 128.0 mg/kg/injection, schedule: Q04DX003 (sc), vehicle: saline with Tween-80).

Take `Nc1cc2c(cc1Br)-c1c(C(=O)O)cccc1C2O` (stereo not drawn): the T/C reads like this: (dose: 150.0 mg/kg/injection, schedule: Q04DX003 (ip), vehicle: sodium bicarbonate) 97 % of control; (dose: 300.0 mg/kg/injection, schedule: Q04DX003 (ip), vehicle: sodium bicarbonate) 94 % of control; (dose: 600.0 mg/kg/injection, schedule: Q04DX003 (ip), vehicle: sodium bicarbonate) 101 % of control; (dose: 1200.0 mg/kg/injection, schedule: Q04DX003 (ip), vehicle: sodium bicarbonate) 92 % of control.

`NCCCNCCCCNC(=O)C(O)NC(=O)CCCCCCN=C(N)N` (stereo not drawn): the T/C (dose: 25.0 mg/kg/injection, schedule: Q04DX003 (ip), vehicle: saline with Tween-80) was 69 % of control.

As for `COC(=O)[C@@]12OC[C@]34[C@H]([C@@H](O)[C@@H]1O)[C@@]1(C)CC(=O)C(O)=C(C)[C@@H]1C[C@H]3OC(=O)[C@H](OC(=O)/C=C(\C)C(C)C)[C@@H]24`, the T/C (dose: 1.0 mg/kg/injection, schedule: Q01DX010 (sc), vehicle: saline + alcohol) was 51 % of control.

On to `C[CH2][Sn]([Cl])([CH2]C)[c]1cc[c]([Sn]([Cl])([CH2]C)[CH2]C)cc1`, for which the T/C reads like this: (dose: 0.25 mg/kg/injection, schedule: Q04DX003 (ip), vehicle: Klucel (hydroxypropylcellulose) (HPC)) 103 % of control; (dose: 0.5 mg/kg/injection, schedule: Q04DX003 (ip), vehicle: Klucel (hydroxypropylcellulose) (HPC)) 109 % of control; (dose: 1.0 mg/kg/injection, schedule: Q04DX003 (ip), vehicle: Klucel (hydroxypropylcellulose) (HPC)) 95 % of control.

Regarding `CCCNC1=C(C)C(=O)C2=C(C1=O)[C@H](COC(N)=O)[C@]1(OC)[C@@H]3N[C@@H]3CN21`, the T/C is 13 % of control (dose: 3.0 mg/kg/injection, schedule: Q04DX003 (sc), vehicle: saline); -77 % of control (dose: 6.0 mg/kg/injection, schedule: Q04DX003 (sc), vehicle: saline); -100 % of control (dose: 12.0 mg/kg/injection, schedule: Q04DX003 (sc), vehicle: saline).

Turning to `COc1cc2c(ccc3c4cc(OC)c(OC)cc4c[n+](C)c23)cc1O`, the T/C is 83 % of control under setting [1]; 74 % of control (dose: 300.0 mg/kg/injection, schedule: Q04DX003 (sc), vehicle: saline); 79 % of control (dose: 600.0 mg/kg/injection, schedule: Q04DX003 (sc), vehicle: saline); 68 % of control (dose: 1200.0 mg/kg/injection, schedule: Q04DX003 (sc), vehicle: saline).

With `O=P1(NCCCl)OCCCN1CCCl` (stereo not drawn), the T/C under setting [1] is -32 % of control.

On to `CCS/C(SC)=C(/c1ccccc1)[P+](c1ccccc1)(c1ccccc1)c1ccccc1`, for which the T/C is, setting by setting: (dose: 9.38 mg/kg/injection, schedule: Q04DX003 (sc), vehicle: Klucel (hydroxypropylcellulose) (HPC)) 92 % of control; (dose: 18.75 mg/kg/injection, schedule: Q04DX003 (sc), vehicle: Klucel (hydroxypropylcellulose) (HPC)) 111 % of control; (dose: 37.5 mg/kg/injection, schedule: Q04DX003 (sc), vehicle: Klucel (hydroxypropylcellulose) (HPC)) 75 % of control.

`CC(C)CCC(=O)c1ccoc1`: the T/C is 101 % of control (dose: 0.75 mg/kg/injection, schedule: Q01DX010 (ip), vehicle: saline with Tween-80); 103 % of control (dose: 1.5 mg/kg/injection, schedule: Q01DX010 (ip), vehicle: saline with Tween-80); 84 % of control (dose: 3.0 mg/kg/injection, schedule: Q01DX010 (ip), vehicle: saline with Tween-80).

For `Oc1cc(O)cc(/C=C/c2ccc(O)c(O)c2)c1`, the T/C (dose: 25.0 mg/kg/injection, schedule: Q04DX003 (ip), vehicle: DMSO) is 90 % of control; the T/C (dose: 37.5 mg/kg/injection, schedule: Q04DX003 (ip), vehicle: DMSO) was 123 % of control; the T/C under setting [2] was 69 % of control; the T/C (dose: 75.0 mg/kg/injection, schedule: Q04DX003 (ip), vehicle: DMSO) was 71 % of control; the T/C (dose: 100.0 mg/kg/injection, schedule: Q04DX003 (ip), vehicle: DMSO) was 48 % of control; the T/C (dose: 150.0 mg/kg/injection, schedule: Q04DX003 (ip), vehicle: DMSO) is 67 % of control.

For `CC1C(c2ccccc2)OC(N2CCOCC2)C(C)(C)CN1C` (stereo not drawn), the T/C by setting is: (dose: 150.0 mg/kg/injection, schedule: Q04DX003 (ip), vehicle: saline with Tween-80) 112 % of control; (dose: 300.0 mg/kg/injection, schedule: Q04DX003 (ip), vehicle: saline with Tween-80) 101 % of control; (dose: 600.0 mg/kg/injection, schedule: Q04DX003 (ip), vehicle: saline with Tween-80) 82 % of control.

Regarding `O=C1CNC(=O)N1CN1CCOCC1`, the T/C reads like this: under setting [3], 83 % of control; (dose: 300.0 mg/kg/injection, schedule: Q04DX003 (ip), vehicle: Klucel (hydroxypropylcellulose) (HPC)) 89 % of control; (dose: 600.0 mg/kg/injection, schedule: Q04DX003 (ip), vehicle: Klucel (hydroxypropylcellulose) (HPC)) 81 % of control.

Consider `COc1cc2c(cc1OC)[C@@H]1C(=O)c3ccc4c(c3O[C@@H]1CO2)C[C@H](C(C)C)O4`, for which the T/C by setting is: (dose: 37.5 mg/kg/injection, schedule: Q04DX003 (ip), vehicle: Klucel (hydroxypropylcellulose) (HPC)) 78 % of control; (dose: 75.0 mg/kg/injection, schedule: Q04DX003 (ip), vehicle: Klucel (hydroxypropylcellulose) (HPC)) 55 % of control; under setting [3], 57 % of control.

For the compound `CCOC(=O)c1c[nH]c2ccc3c(nc(C)n3C)c2c1=O`, the T/C runs as follows: (dose: 100.0 mg/kg/injection, schedule: Q04DX003 (ip), vehicle: Klucel (hydroxypropylcellulose) (HPC)) 122 % of control; (dose: 200.0 mg/kg/injection, schedule: Q04DX003 (ip), vehicle: Klucel (hydroxypropylcellulose) (HPC)) 122 % of control; (dose: 400.0 mg/kg/injection, schedule: Q04DX003 (ip), vehicle: Klucel (hydroxypropylcellulose) (HPC)) 94 % of control; (dose: 800.0 mg/kg/injection, schedule: Q04DX003 (ip), vehicle: Klucel (hydroxypropylcellulose) (HPC)) 77 % of control.

Consider `CCOC(=O)C1=C(Nc2ccc(OC)cc2)C(N)=NC1=N`, for which the T/C is 76 % of control (dose: 37.5 mg/kg/injection, schedule: Q04DX003 (ip), vehicle: suspension in saline); 82 % of control (dose: 75.0 mg/kg/injection, schedule: Q04DX003 (ip), vehicle: suspension in saline); 79 % of control and 103 % of control (dose: 150.0 mg/kg/injection, schedule: Q04DX003 (ip), vehicle: suspension in saline); 47 % of control and 50 % of control (dose: 300.0 mg/kg/injection, schedule: Q04DX003 (ip), vehicle: suspension in saline); 32 % of control (dose: 600.0 mg/kg/injection, schedule: Q04DX003 (ip), vehicle: suspension in saline).

In the case of `CC(=O)OCC(=O)[C@@]12OC(C)(C)O[C@@H]1C[C@H]1[C@@H]3CC(C=O)=C4C=C(OCCCl)CC[C@]4(C)[C@@]3(F)[C@@H](O)C[C@@]12C`, the T/C runs as follows: (dose: 25.0 mg/kg/injection, schedule: Q04DX003 (sc), vehicle: Klucel (hydroxypropylcellulose) (HPC)) 93 % of control; (dose: 50.0 mg/kg/injection, schedule: Q04DX003 (sc), vehicle: Klucel (hydroxypropylcellulose) (HPC)) 81 % of control; (dose: 100.0 mg/kg/injection, schedule: Q04DX003 (sc), vehicle: Klucel (hydroxypropylcellulose) (HPC)) 71 % of control; (dose: 200.0 mg/kg/injection, schedule: Q04DX003 (sc), vehicle: Klucel (hydroxypropylcellulose) (HPC)) 78 % of control.

Consider `Cc1ccc2c(c1)C1(SC(C)C(=O)N1c1ccc(Cl)cc1)C(=O)N2` (stereo not drawn), for which the T/C is, setting by setting: (dose: 100.0 mg/kg/injection, schedule: Q04DX003 (ip), vehicle: saline with Tween-80) 107 % of control; (dose: 200.0 mg/kg/injection, schedule: Q04DX003 (ip), vehicle: saline with Tween-80) 85 % of control; (dose: 800.0 mg/kg/injection, schedule: Q04DX003 (ip), vehicle: saline with Tween-80) 72 % of control.

On to `c1ccc2[nH]c(CN(CCN(Cc3nc4ccccc4[nH]3)Cc3nc4ccccc4[nH]3)Cc3nc4ccccc4[nH]3)nc2c1`, for which the T/C runs as follows: (dose: 6.25 mg/kg/injection, schedule: Q04DX003 (ip), vehicle: DMSO) 59 % of control and 68 % of control; under setting [2], 62 % of control.
